Source: ChEMBL document CHEMBL2331362, “Identification of N-acyl 4-(5-pyrimidine-2,4-dionyl)phenylalanine derivatives and their orally active prodrug esters as dual-acting alpha4-beta1 and alpha4-beta7 receptor antagonists” (Bioorg Med Chem Lett, 2013)

Assays:
[1] = Apparent permeability across human Caco2 cells; format: ADME, cell-based; conditions: Caco-2
Integrin alpha-4/beta-7 = biological target: T1, Integrin alpha-4/beta-7 (Homo sapiens, UniProt P13612+P26010); assay: Inhibition of human MAdCAM1 binding to integrin alpha4beta7 receptor in human RPMI 8866 cells labeled with Calcein AM; format: cell-based
T1 sequence (P13612 whole entry): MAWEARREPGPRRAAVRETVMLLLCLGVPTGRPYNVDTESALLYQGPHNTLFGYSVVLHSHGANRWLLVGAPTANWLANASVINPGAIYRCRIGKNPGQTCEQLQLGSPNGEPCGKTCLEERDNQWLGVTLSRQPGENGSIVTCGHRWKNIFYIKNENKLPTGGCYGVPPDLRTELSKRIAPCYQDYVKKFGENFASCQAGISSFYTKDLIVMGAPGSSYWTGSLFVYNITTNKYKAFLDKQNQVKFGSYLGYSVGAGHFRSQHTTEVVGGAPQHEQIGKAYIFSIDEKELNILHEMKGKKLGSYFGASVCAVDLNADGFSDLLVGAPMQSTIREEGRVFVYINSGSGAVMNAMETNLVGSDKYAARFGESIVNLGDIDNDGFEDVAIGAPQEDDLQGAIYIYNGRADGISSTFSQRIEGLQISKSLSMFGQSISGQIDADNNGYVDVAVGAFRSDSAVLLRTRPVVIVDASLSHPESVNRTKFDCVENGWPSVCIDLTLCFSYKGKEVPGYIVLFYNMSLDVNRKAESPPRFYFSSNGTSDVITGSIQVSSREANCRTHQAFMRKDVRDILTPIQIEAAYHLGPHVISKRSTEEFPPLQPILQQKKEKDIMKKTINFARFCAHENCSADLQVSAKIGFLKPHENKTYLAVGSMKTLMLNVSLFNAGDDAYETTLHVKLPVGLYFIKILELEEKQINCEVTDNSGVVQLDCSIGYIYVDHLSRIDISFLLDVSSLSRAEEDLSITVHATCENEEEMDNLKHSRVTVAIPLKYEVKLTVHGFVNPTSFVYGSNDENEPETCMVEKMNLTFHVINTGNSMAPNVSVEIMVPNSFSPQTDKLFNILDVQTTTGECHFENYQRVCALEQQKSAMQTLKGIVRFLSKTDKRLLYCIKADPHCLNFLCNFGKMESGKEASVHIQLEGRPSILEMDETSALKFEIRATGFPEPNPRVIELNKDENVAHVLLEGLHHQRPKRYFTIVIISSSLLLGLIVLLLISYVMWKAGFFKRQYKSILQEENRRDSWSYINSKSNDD
T1 sequence (P26010 whole entry): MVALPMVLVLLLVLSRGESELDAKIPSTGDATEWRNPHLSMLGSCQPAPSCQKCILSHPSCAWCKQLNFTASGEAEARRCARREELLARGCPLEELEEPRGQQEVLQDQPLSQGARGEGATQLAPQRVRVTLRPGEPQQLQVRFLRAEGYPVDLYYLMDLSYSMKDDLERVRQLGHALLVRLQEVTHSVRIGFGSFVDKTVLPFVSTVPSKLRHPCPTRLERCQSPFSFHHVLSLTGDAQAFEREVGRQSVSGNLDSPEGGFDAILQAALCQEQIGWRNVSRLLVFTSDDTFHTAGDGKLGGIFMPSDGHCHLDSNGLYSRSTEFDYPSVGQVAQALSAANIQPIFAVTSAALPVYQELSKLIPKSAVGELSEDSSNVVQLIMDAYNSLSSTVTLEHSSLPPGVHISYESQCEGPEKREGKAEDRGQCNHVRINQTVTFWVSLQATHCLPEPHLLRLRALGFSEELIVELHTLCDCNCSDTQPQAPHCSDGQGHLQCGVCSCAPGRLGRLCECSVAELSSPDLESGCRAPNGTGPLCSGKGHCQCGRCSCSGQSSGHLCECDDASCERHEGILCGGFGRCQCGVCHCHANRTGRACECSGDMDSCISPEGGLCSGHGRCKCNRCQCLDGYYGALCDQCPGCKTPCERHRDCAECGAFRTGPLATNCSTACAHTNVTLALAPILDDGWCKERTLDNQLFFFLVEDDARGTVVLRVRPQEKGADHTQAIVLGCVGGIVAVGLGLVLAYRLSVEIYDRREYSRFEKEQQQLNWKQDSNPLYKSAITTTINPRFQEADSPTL

[2] = Mean residence time in cynomolgus monkey at 10 mg/kg, iv; format: ADME, organism-based, Macaca fascicularis; parameters: dose 10 mg/kg, route intravenous; conditions: in vivo
[3] = Half life in cynomolgus monkey at 10 mg/kg, iv; format: ADME, organism-based, Macaca fascicularis; parameters: dose 10 mg/kg, route intravenous; conditions: in vivo
Integrin alpha-4/beta-1 [4] = biological target: T2, Integrin alpha-4/beta-1 (Homo sapiens, UniProt P05556+P13612); assay: Inhibition of human VCAM1 binding to integrin alpha4beta1 receptor in human Ramos cells labeled with Calcein AM relative to (S)-2-(2-chloro-6-methylbenzamido)-3-(4-(2,6-dichlorobenzamido)phenyl)propanoic acid; format: cell-based
[5] = biological target: Integrin alpha-4/beta-7 (Homo sapiens) (UniProt P13612+P26010); assay: Inhibition of human MAdCAM1 binding to integrin alpha4beta7 receptor in human RPMI 8866 cells labeled with Calcein AM relative to (S)-2-(2-chloro-6-methylbenzamido)-3-(4-(2,6-dichlorobenzamido)phenyl)propanoic acid; format: cell-based
[6] = AUC (0 to 8 hrs) in mouse at 10 mg/kg, iv; format: ADME, organism-based; parameters: time < 8 hr, dose 10 mg/kg, route intravenous; conditions: plasma
[7] = Mean residence time in dog at 5 mg/kg, iv; format: ADME, organism-based, Canis lupus familiaris; parameters: dose 5 mg/kg, route intravenous; conditions: in vivo
[8] = Half life in dog at 5 mg/kg, iv; format: ADME, organism-based, Canis lupus familiaris; parameters: dose 5 mg/kg, route intravenous; conditions: in vivo
[9] = Clearance in dog at 5 mg/kg, iv; format: ADME, organism-based, Canis lupus familiaris; parameters: dose 5 mg/kg, route intravenous; conditions: in vivo
[10] = Clearance in cynomolgus monkey at 10 mg/kg, iv; format: ADME, organism-based, Macaca fascicularis; parameters: dose 10 mg/kg, route intravenous; conditions: in vivo
[11] = Clearance in rat at 10 mg/kg, iv; format: ADME, organism-based; parameters: dose 10 mg/kg, route intravenous; conditions: in vivo
[12] = Mean residence time in rat at 10 mg/kg, iv; format: ADME, organism-based; parameters: dose 10 mg/kg, route intravenous; conditions: in vivo
[13] = AUC (0 to 8 hrs) in dog at 5 mg/kg, iv; format: ADME, organism-based, Canis lupus familiaris; parameters: time < 8 hr, dose 5 mg/kg, route intravenous; conditions: plasma
Integrin alpha-4/beta-1 [14] = biological target: T2, Integrin alpha-4/beta-1; assay: Inhibition of human VCAM1 binding to integrin alpha4beta1 receptor in human Ramos cells labeled with Calcein AM; format: cell-based
[15] = AUC (0 to 8 hrs) in cynomolgus monkey at 10 mg/kg, iv; format: ADME, organism-based, Macaca fascicularis; parameters: time < 8 hr, dose 10 mg/kg, route intravenous; conditions: plasma
[16] = AUC (0 to 8 hrs) in rat at 10 mg/kg, iv; format: ADME, organism-based; parameters: time < 8 hr, dose 10 mg/kg, route intravenous; conditions: plasma
[17] = Clearance in mouse at 10 mg/kg, iv; format: ADME, organism-based; parameters: dose 10 mg/kg, route intravenous; conditions: in vivo
[18] = Mean residence time in mouse at 10 mg/kg, iv; format: ADME, organism-based; parameters: dose 10 mg/kg, route intravenous; conditions: in vivo
[19] = Distribution coefficient, log D of the compound; format: physicochemical; conditions: octanol/water

T2 sequence (P05556 whole entry, one chain of several): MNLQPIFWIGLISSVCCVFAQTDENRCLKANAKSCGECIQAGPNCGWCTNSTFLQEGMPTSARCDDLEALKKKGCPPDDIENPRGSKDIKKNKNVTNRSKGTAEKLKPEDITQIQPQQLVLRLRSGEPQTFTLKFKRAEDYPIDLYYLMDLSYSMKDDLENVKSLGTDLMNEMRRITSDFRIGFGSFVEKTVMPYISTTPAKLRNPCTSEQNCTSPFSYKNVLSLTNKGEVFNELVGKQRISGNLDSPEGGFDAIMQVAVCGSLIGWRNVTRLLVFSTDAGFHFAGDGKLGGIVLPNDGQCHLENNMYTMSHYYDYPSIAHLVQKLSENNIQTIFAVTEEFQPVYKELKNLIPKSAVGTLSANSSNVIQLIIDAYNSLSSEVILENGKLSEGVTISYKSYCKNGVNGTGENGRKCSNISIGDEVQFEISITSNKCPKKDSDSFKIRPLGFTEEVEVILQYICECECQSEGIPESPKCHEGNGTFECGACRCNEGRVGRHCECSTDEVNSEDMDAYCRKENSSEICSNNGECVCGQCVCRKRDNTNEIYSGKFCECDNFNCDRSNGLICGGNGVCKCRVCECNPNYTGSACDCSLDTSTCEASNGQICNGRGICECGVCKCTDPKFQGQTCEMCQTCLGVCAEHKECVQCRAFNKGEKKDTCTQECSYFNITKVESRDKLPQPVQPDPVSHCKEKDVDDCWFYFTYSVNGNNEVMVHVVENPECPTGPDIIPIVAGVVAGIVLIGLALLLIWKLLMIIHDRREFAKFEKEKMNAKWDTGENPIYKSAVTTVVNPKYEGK

Work on `Cc1c(-c2ccc(C[C@H](NC(=O)c3c(F)cccc3F)C(=O)O)cc2)c(=O)n(C)c(=O)n1C` yielded a Papp [1] of 0.77 ×10⁻⁶ cm/s, an IC50 (Integrin alpha-4/beta-7) of 81 nM and an MRT [2] of 15 min. The half-life [3] was 87.6 min, the Ratio IC50 (Integrin alpha-4/beta-1 [4]) was 3.2 and the Ratio IC50 [5] was 3.3. The AUC(0-t) at 8 h [6] was 7890 ng·h/mL, the MRT [7] was 12.6 min and the half-life [8] was 11.4 min. For the same compound, the clearance [9] was 29.7 mL/min/kg, the clearance [10] was 6.88 mL/min/kg and the clearance [11] was 4.8 mL/min/kg. It also gave an MRT [12] of 36.6 min, an AUC(0-t) at 8 h [13] of 2790 ng·h/mL and an IC50 (Integrin alpha-4/beta-1 [14]) of 18 nM. For the same compound, the AUC(0-t) at 8 h [15] was 22200 ng·h/mL, the AUC(0-t) at 8 h [16] was 41500 ng·h/mL and the clearance [17] was 21 mL/min/kg. For the same compound, the MRT [18] was 15.6 min and the logD [19] was -2.36.
